Reference: patent US11753407B2, “Compounds for treating spinal muscular atrophy” (PTC Therapeutics, Inc., priority 2012, dated 2023)

Key:
[1] = test system: SMN2 minigene mRNA (SMN2-A minigene) in HEK293H cells; experiment: SMN2 minigene mRNA splicing RT-qPCR assay in cultured cells; type: cell-based, human; details: Homo sapiens, HEK293-H; concentration increasing full length SMN2 mRNA 1.5-fold relative to vehicle-treated cells; HEK293H cells with SMN2-A minigene, 24 hours, 7-point concentration data; read-out: EC1.5x for production of full length SMN2 mRNA
In short: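 Potency reflects the concentration that lifts full-length SMN2 minigene mRNA 1.5-fold above vehicle in stably transfected HEK293H cells after 24 h of treatment. Transcript abundance came from RT-qPCR as (1+E)^−Ct, normalized to GAPDH; endogenous SMN1/SMN2 are not detected.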

[2] = test system: Smn protein in SMA patient fibroblast cells (GM03813); experiment: Smn protein assay in cultured cells (SMN HTRF); type: cell-based, human; details: SMA patient fibroblast cells, 48 hours; for EC1.5x for Smn protein expression: 7-point concentration curve, SMN HTRF, concentration producing 1.5 times Smn protein vs DMSO vehicle control; for maximum fold (Fold) increase of Smn protein: 7-point concentration data, fold relative to vehicle control
In short: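 Smn protein abundance in treated SMA fibroblasts was measured by HTRF after 48 h compound exposure. The reported EC1.5× is the concentration producing 1.5 times vehicle Smn levels.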

| melting point [°C] | SMILES | EC (1.5-fold increase) [1] [µM] | EC1.5x for Smn protein expression [2] | maximum fold (Fold) increase of Smn protein [2] |
| --- | --- | --- | --- | --- |
| 195 to 200 | COc1ccc(-c2cc(=O)n3cc(N4CCN[C@@H](C)C4)ccc3n2)cc1C(F)(F)F [Compound 69, 2-[4-methoxy-3-(trifluoromethyl)phenyl]-7-[(3S)-3-methylpiperazin-1-yl]-4H-pyrido[1,2-a]pyrimidin-4-one] | 0.3 to 1 | *** (an EC1.5× between >0.3 μM and ≤1 μM is indicated by three stars (***)) | **** (a fold increase between >1.5 and ≤1.65 is indicated by four stars (****)) |
| 146 to 151 | N#Cc1ccc(-c2cc(=O)n3cc(N4CCNCC4)ccc3n2)cc1 [Compound 73, 4-[4-oxo-7-(piperazin-1-yl)-4H-pyrido[1,2-a]pyrimidin-2-yl]benzonitrile] | 3 to 30 |  | ** (a fold increase between >1.2 and ≤1.35 is indicated by two stars (**)) |
| 235 to 238 | Cc1cn2cc(-c3cc(=O)n4cc(N5CCN[C@@H](C)C5)ccc4n3)nc2cn1 [Compound 75, 2-(6-methylimidazo[1,2-a]pyrazin-2-yl)-7-[(3S)-3-methylpiperazin-1-yl]-4H-pyrido[1,2-a]pyrimidin-4-one] | < 0.1 | **** (an EC1.5x≤0.3 μM is indicated by four stars (****)) | ***** (a fold increase >1.65 is indicated by five stars (*****)) |
| 214 to 217 | O=c1cc(-c2ccc(F)c(C(F)(F)F)c2)nc2ccc(N3CCNCC3)cn12 [Compound 77, 2-[4-fluoro-3-(trifluoromethyl)phenyl]-7-(piperazin-1-yl)-4H-pyrido[1,2-a]pyrimidin-4-one] | 0.3 to 1 |  | ** (a fold increase between >1.2 and ≤1.35 is indicated by two stars (**)) |
| 194 to 200 | COc1c(-c2cc(=O)n3cc(N4CCNCC4)ccc3n2)cccc1C(F)(F)F [Compound 78, 2-[2-methoxy-3-(trifluoromethyl)phenyl]-7-(piperazin-1-yl)-4H-pyrido[1,2-a]pyrimidin-4-one] | 1 to 3 |  | * (A maximum fold increase of ≤1.2 is indicated by one star (*)) |
| 195 to 198 | O=c1cc(-c2cc(F)cc(F)c2)nc2ccc(N3CCNCC3)cn12 [Compound 79, 2-(3,5-difluorophenyl)-7-(piperazin-1-yl)-4H-pyrido[1,2-a]pyrimidin-4-one] | 0.1 to 0.3 | *** (an EC1.5× between >0.3 μM and ≤1 μM is indicated by three stars (***)) | **** (a fold increase between >1.5 and ≤1.65 is indicated by four stars (****)) |
| 140 to 143 | O=c1cc(-c2cccc(OC(F)(F)F)c2)nc2ccc(N3CCNCC3)cn12 [Compound 80, 7-(piperazin-1-yl)-2-[3-(trifluoromethoxy)phenyl]-4H-pyrido[1,2-a]pyrimidin-4-one] | 1 to 3 |  | * (A maximum fold increase of ≤1.2 is indicated by one star (*)) |
| 176 to 178 | COc1ccc(-c2cc(=O)n3cc(N4CCN[C@@H](C)C4)ccc3n2)cc1OC(F)(F)F [Compound 83, 2-[4-methoxy-3-(trifluoromethoxy)phenyl]-7-[(3S)-3-methylpiperazin-1-yl]-4H-pyrido[1,2-a]pyrimidin-4-one] | 0.3 to 1 |  | * (A maximum fold increase of ≤1.2 is indicated by one star (*)) |
| 152 to 155 | C[C@H]1CN(c2ccc3nc(-c4ccc(O)c(OC(F)(F)F)c4)cc(=O)n3c2)CCN1 [Compound 84, 2-[4-hydroxy-3-(trifluoromethoxy)phenyl]-7-[(3S)-3-methylpiperazin-1-yl]-4H-pyrido[1,2-a]pyrimidin-4-one] | 1 to 3 | ** (an EC1.5× between >1 μM and ≤3 μM is indicated by two stars (**)) | ***** (a fold increase >1.65 is indicated by five stars (*****)) |
